# Laboratory results: ChEMBL document CHEMBL1158016, “Six new spongian diterpenes from the sponge spongia matamata” (J Nat Prod, 1999)
# System: not listed separately
# Experiment: (§1) Toxicity in brine shrimp
# Assay type: organism-based
# Details: artemia, in vivo
row,SMILES,LC50 [µg/mL]
1,C[C@]12CCC[C@](C)(C(=O)O)[C@@H]1CC[C@@]1(C)c3cocc3CC[C@H]21,10

# System: Artemia
# Experiment: as §1
# Assay type: organism-based
# Details: in vivo
row,SMILES,Activity
1,CO[C@@H]1OC(=O)C2=C1CC[C@@H]1[C@@]3(C)CCC[C@](C)(C(=O)O)[C@@H]3CC[C@@]21C,Non-toxic
2,C[C@]12CCC[C@](C)(C(=O)O)[C@@H]1CC[C@@]1(C)C3=C(CC[C@H]21)COC3=O,Non-toxic
3,COC1O[C@H](OC)[C@]2(O)[C@]1(O)CC[C@@H]1[C@@]3(C)CCC[C@](C)(C(=O)O)[C@@H]3CC[C@]12C (stereo partly specified),Non-toxic
4,CO[C@H]1OC(=O)C2=C1[C@]1(C)CC[C@@H]3[C@](C)(CCC[C@]3(C)C(=O)O)[C@H]1CC2,Non-toxic
5,C[C@]12CCC[C@](C)(C(=O)O)[C@@H]1CC[C@@]1(C)C3=C(CC[C@H]21)C(=O)OC3,Non-toxic
